Experimental data taken from patent publication US5147876A, “2,6-di,2,4,6-, 2,5,6-tri and 2,4,5,6-tetra-substituted pyrimidines, their pharmaceutically acceptable salts, pharmaceutical compositions containing same and their use in the treatment of neurological diseases” (Mitsui Petrochemical Industries, Ltd., priority 1988, dated 1992).
“And” between values parts separate entries of the source, which are not always exact repeats. Equal values may be shown once. Where a name gives a salt, the structure may show the parent alone.

Legend:
[1] = test system: neuro-2a (mouse neuroblastoma cells); assay: Action on neuro-2a: proportion of cells containing outgrown neurites; format: cell-based; settings: mean ± S.D.
Method in brief: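 Mouse neuro-2a cells at 1,000 cells/well in DMEM with 10% FCS were cultured one day at 37 °C, 5% CO2, then glutaraldehyde-fixed and methylene-blue-stained. The proportion of cells bearing a neurite at least twice the cell's long diameter was counted over >200 cells; up to 6 concentrations, triplicate runs.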

[2] = test system: mice; assay: Acute toxicity on mice; format: in vivo; settings: 24 hours after administration
Procedure: (§1) The acute toxicity of the compounds of the invention was examined by the following method.
(§2) Male ddy-strain 5-week old mice, 4-6- per group, were used as experimental animals. Each of the compounds was intraperitoneally (i.p.), and the toxicity of the compound was assessed 24 hours after the administration.

[3] = test system: NS-20Y (mouse neuroblastoma cells); assay: Activity on NS-20Y cells: appearance of neurites; format: cell-based
Method in brief: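 Mouse neuroblastoma NS-20Y cells were grown in polyornithine-coated dishes in DMEM with 10 % FCS, 100 units/ml penicillin G sodium and 100 micrograms/ml streptomycin sulfate, at 37° C under 5 % carbon dioxide, and exposed to compound. Cells were fixed with 4 % glutaraldehyde, stained with 0.05 % methylene blue, and the fraction bearing neurites at least twice the cell's long diameter was counted microscopically.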

[4] = test system: rats with crushed sciatic nerves; assay: Weight of muscle extensor digitorum longus in rats with crushed sciatic nerves; format: in vivo, rat (male Wistar); settings: 30 mg/kg, thirty days after operation; mean ± S.D.; *2 p < 0.05
Procedure: (§3) The therapeutic effect of the compound of the invention was tested on rats having crushed sciatic nerves as a model of peripheral nervous disorder using (1) a change in the action of the hind paw with the crushed sciatic nerves and (2) a change in the weight of the muscle as an index of the course of degeneration and regeneration of peripheral nerves.
(§4) In the experiment, male Wistar rats (6 weeks old), seven per group, were used. The sciatic nerves were crushed by a method similar to the method of Yamatsu et al. (see Kiyomi Yamatsu, Takenori Kaneko, Akifumi Kitahara and Isao Ohkawa, Journal of Japanese Pharmacological Society, 72, 259-268 (1976) and the method of Hasegawa et al. (see Kazuo Hasegawa, Naoji Mikuni and Yutaka Sakai, Journal of Japanese Pharmacological Society, 74, 721-734 (1978). Specifically, under anesthesia with pentobarbital (40 mg/kg, i.p.), the left side sciatic nerve was exposed at the femur, and a specific site of the exposed sciatic nerve was crushed for 30 seconds by using a hemostat. After the crushing, the operation site was immediately sutured. Thereafter, vincristine known to retard the regeneration of the peripheral nerve was intraperitoneally administered in a dose of […] once a week.
(§5) Compounds of the invention were selected as test drugs, and administered intraperitoneally once a day from the day of crushing to 30th day from then. To a control group, only 0.9 % saline was administered.
It is known that removal of a nerve or its disorder causes atorphy of the muscle which is under its control, and the atrophy is gradually cured by re-control by the nerve. For this reason, a change in the weight of the muscle, which is quantitative, was selected as an index. Thirty days after the operation, the muscles extensor digitorum longus of both hind paws which are muscles under the control of sciatic nerves were extracted under anesthesia, and their weights were measured. The ratio of the weight of the muscle extensor digitorum longus on the crushed side to that of normal side was calculated and expressed in percentage (%).

[5] = test system: rats with crushed sciatic nerves; assay: Twitch tension of hind paw in rats with crushed sciatic nerves; format: in vivo, rat (male Wistar); settings: Table 14; 30 mg/kg i.p. once a day, 30 days; mean ± S.D.; 168: *3 p < 0.01, 296: *2 p < 0.05
Procedure: as §3, §4, §5
Twitch tension, which is a transient tension incident to contraction of the dominated muscles that occurs by electrical stimulation or the like of motor nerves, as is the case with the interdigit distance to be described, is considered to reflect functional changes of the nerves and muscles.
[…] J. Neurosci. Methods, 19, 259 (1987)]. Specifically, the hair on the hind paw of rats was shaven, and coated with Cardiocream (a product of Nihon Denko K.K.). Then, to the skin of the hind paw, electrodes with an alligator were attached The cathode was attached to the rear portion of the trochiter, and the […], to a site 1 cm rearwardly of the […] electrode and 1 cm toward its back. The rat was fixed on its back, and the hind paw to be measured was fixed perpendicularly. A silk yarn, about 20 cm long, was connected at one end to the third efferent toe joint of the hind paw to be measured and at the other end to a tension transducer. Isotonic contractions of the third muscle digitus flexus were recorded on a polygraph. Electrical stimulation was effected at a voltage of 100V for a continuous duration of 1 msec. with rectangular waves at a frequency of 2 Hz. The static tension was 15 to 30 g, and 10 stimulations were repeated 3 times with intervals of 15 seconds. The contracting force was expressed as tension (g). From the measured values of both paws, the recovery ratio (%, left/right) of the contracting force of the paw with crushed nerves was calculated.

[6] = test system: rats with lesioned nigral dopaminergic nerve cells; assay: Motor imbalance (methamphetamine-induced rotation) after 6-hydroxydopamine lesion and transplantation of fetal cerebral cells; format: in vivo, rat (female Wistar)
Procedure: Nigral dopaminergic nerve cells at the left side of the brain of 4-week old female Wistar rats (body weight 100 g) were lesioned by injecting a very small quantity of 6-hydroxydopamine. […] Upon administration of methamphethamine (5 mg/kg, i.p.) to the rats having the lesioned nigral dopaminergic nerve cells, they began rotational movement toward the lesioned side.
After two weeks from the destruction by the administration of the drug, portions of the […] containing dopamine cells (i.e., substantial nigra and the tagmentum at the abdomen side) were cut from the brain of a fetal rat of 14 to 17 days of age, cut finely, and treated with trypsin. Then, the extracted tissues were incubated at 37° C. for 30 minutes, and the tissues were subjected to pipetting to form a suspension. Five microliters of the suspension was transplanted each into two sites of the caudate nucleus of the lesioned side (10 microliters in total, about 10^5 cells)
Compound No. 168 of the invention was administered in a dose of 156 mg/kg (i.p.) for 4 days from the day of transplantation, then with a suspension of 7 days, for 10 days in a dose of 50 mg/kg (i.p.) from the 11th day. Compound No. 296 was administered in a dose of 153 mg/kg, and then 50 mg/kg, in accordance with the same schedule.
Compound No. 3144 was also administered in accordance with the same schedule in a dose of 135 mg/kg, and then 45 mg/kg.
The rotational movements induced by administration of methamphetamine were examined 2 weeks and 1 week before, and 2 (or 3), 4, 6 and 8 weeks after, the transplantation and the administration of the drug. The number of rotational movements for the first one minute was counted at intervals of 10 minutes after the administration of methamphetamine, and the total number of rotational movements counted six times was averaged to find a mean number of the rotational movements.

[7] = Acute toxicity on mice; format: in vivo; settings: mouse, in vivo, ip, 24 hours after administration; read-out: Estimated LD50
Procedure: as §1, §2

SMILES	Estimated LD50 [2]	Number of cells having neurites with a length at least two times the diameter of each cell/total number of cells ([1]; 0.1 mM)	Number of cells having neurites with a length at least two times the diameter of each cell/total number of cells ([1]; 0.3 mM)	Number of cells in which neurites appeared/total number of cells ([3]; 24 hours, 0.1 mM)	Number of cells in which neurites appeared/total number of cells ([3]; 48 hours, 0.1 mM)	LD50 at 24 h [7]	Number of cells having neurites with a length at least two times the diameter of each cell/total number of cells ([1]; 0.03 mM)	further results
CN(C(=O)c1ccccc1)c1ccnc(N2CCC(c3ccccc3)CC2)n1 [Compound 170, 4-(N-methylbenzamino)-2-(4-phenylpiperidino)pyrimidine hydrochloride]	> 1000 mg/kg, i.p.	–	–	–	–	–	–	Number of cells having neurites with a length at least two times the diameter of each cell/total number of cells ([1]; 0.1 mM, hydrochloride): 33.5 ± 2.4%; Number of cells having neurites with a length at least two times the diameter of each cell/total number of cells ([1]; 0.3 mM, hydrochloride): 31.0 ± 4.6%
CN(C(=O)c1ccccc1)c1ccnc(N2CCC(c3ccccc3)CC2)n1 [Compound 169]	> 1000 mg/kg, i.p.	34.1 ± 5.7%	16.6 ± 5.2%	–	–	–	–	–
CN(C(=O)c1ccco1)c1ccnc(N2CCC(c3ccccc3)CC2)n1 [Compound 296]	–	44.4 ± 5.5%	22.4 ± 3.0%	9/49	2/50	> 1000 mg/kg	–	Weight of muscle extensor digitorum longus left/right [4]: 56.9 ± 9.7%; Twitch tension left/right [5]: 48.1 ± 9.4%; mean number of the rotational movements ([6]; 3 W after transplantation, i.p. 168: 156 then 50, 296: 153 then 50, 3144: 135 then 45 mg/kg): 8.4 ± 5.0; mean number of the rotational movements ([6]; 4 W after transplantation, i.p. 168: 156 then 50, 296: 153 then 50, 3144: 135 then 45 mg/kg): 3.1 ± 3.4; mean number of the rotational movements ([6]; 6 W after transplantation, i.p. 168: 156 then 50, 296: 153 then 50, 3144: 135 then 45 mg/kg): 0.9 ± 2.3; mean number of the rotational movements ([6]; 8 W after transplantation, i.p. 168: 156 then 50, 296: 153 then 50, 3144: 135 then 45 mg/kg): 1.0 ± 1.5; mean number of the rotational movements ([6]; -1 W (before transplantation and drug)): 13.2 ± 4.1
CN(C(=O)c1ccc(Cl)cc1Cl)c1ccnc(N2CCC(c3ccccc3)CC2)n1.Cc1ccc(S(=O)(=O)O)cc1 [Compound 171-11]	> 1000 mg/kg, i.p.	36.8 ± 7.1% and 22.1 ± 2.3%	–	–	2/50	–	5.9 ± 0.9%	Number of cells in which neurites appeared/total number of cells ([3]; 24 hours, 0.3 mM): 5/50; Number of cells having neurites with a length at least two times the diameter of each cell/total number of cells ([1]; 1 mM): 31.7 ± 5.9%
COCC(=O)N(C)c1ccnc(N2CCC(c3ccccc3)CC2)n1.Cc1ccc(S(=O)(=O)O)cc1 [Compound 154-2]	500-1000 mg/kg, i.p.	8.9 ± 2.4%	–	–	–	–	3.9 ± 0.6%	–
CN1C(=O)Cc2cnc(N3CCN(C(c4ccccc4)c4ccccn4)CC3)nc21 (stereo not shown) [Compound 3192]	–	9.7 ± 1.1%	3.7 ± 3.2%	–	–	500 to 1000 mg/kg	–	Number of cells in which neurites appeared/total number of cells ([3]; 24 hours, 0.02 mM): 6/50; Number of cells in which neurites appeared/total number of cells ([3]; 48 hours, 0.02 mM): 4/50
CC(=O)N(C)c1ccnc(N2CCCc3ccccc32)n1 [Compound 320]	–	7.2 ± 0.2%	8.5 ± 1.1%	8/50	6/50	> 1000 mg/kg	–	–
CN(C(=O)c1ccccc1)c1ccnc(N2CCC(C(C)(C)C)CC2)n1 [Compound 152]	–	33.8 ± 4.7%	–	–	–	> 1000 mg/kg	6.2 ± 2.3%	Number of cells in which neurites appeared/total number of cells ([3]; 24 hours, 0.05 mM): 3/50; Number of cells in which neurites appeared/total number of cells ([3]; 48 hours, 0.025 mM): 2/50
CN(C(=O)c1ccccc1)c1ccnc(N2CCCCC2)n1 [Compound 136]	–	11.6 ± 6.3%	12.1 ± 2.9%	9/50	–	> 1000 mg/kg	–	Number of cells in which neurites appeared/total number of cells ([3]; 24 hours, 0.4 mM): 42/50; Number of cells in which neurites appeared/total number of cells ([3]; 48 hours, 0.4 mM): 15/50
CN(C(=O)c1ccc(-c2ccccc2)cc1)c1ccnc(N2CCC(c3ccccc3)CC2)n1 [Compound 288]	–	3.3 ± 0.9%	3.8 ± 1.9%	2/52	2/50	500 to 1000 mg/kg	1.4 ± 0.1%	Number of cells having neurites with a length at least two times the diameter of each cell/total number of cells ([1]; 1 mM): 5.1 ± 2.7%
